Assay results as given in US8445281B2, “In vitro exposure of immature oocytes to BDNF enhances generation of embryonic stem cells” (The Board of Trustees of the Leland Stanford Junior …, priority 2006, dated 2013).

B1: NT-3: human neurotrophin-3 (R & D Systems) (protein, UniProt P20783 139-257, looked up)
Neurotrophin-3: YAEHKSHRGEYSVCDSESLWVTDKSSAIDIRGHQVTVLGEIKTGNSPVKQYFYETRCKEARPVKNGCRGIDDKHWNSQCKTSQTYVRALTSENNKLVGWRWIRIDTSCVCALSRKIGRT
B2: NGF: mouse nerve growth factor (R & D Systems) (protein, UniProt P01139 122-241, looked up)
Beta-nerve growth factor: SSTHPVFHMGEFSVCDSVSVWVGDKTTATDIKGKEVTVLAEVNINNSVFRQYFFETKCRASNPVESGCRGIDSKHWNSYCTTTHTFVKALTTDEKQAAWRFIRIDTACVCVLSRKATRRG
B3: BDNF: recombinant human BDNF (Pepro-Tech), neurotrophin, ligand of TrkB (protein)
chain: MTILFLTMVISYFGCMKAAPMKEANIRGQGGLAYPGVRTHGTLESFTVNGPKAGSRGLTSLADTFEHVIEELLDEDQKVRPNEENNKDADLYTSRVMLSSQVPLEPFTPLLFLLEEYKNYLDAANMSMRVRRHSDPARRGELSVCDSISEWVTAADKKTAVDMSGGTFTVTVLEKVPVSKGQLKQYFYETKCNPMGYTKEGCRGIDKRHWNSQCRTTQSYVRALTMDSFTKKRIGWRFIRIDTSCVCTLTIKRGR
modifications: human
notes: recombinant human BDNF (Pepro-Tech), neurotrophin, ligand of TrkB

Key:
[1] = system: Trk receptor; assay: In vivo first polar body extrusion by ovulated oocytes; parameters: species or system mouse; settings: PMSG-primed mice, hCG with i.p. compound, 12 h after hCG
Description: (§1) In Vivo Analysis. […] For negative controls, the plasma membrane nonsoluble K252b was used. Twelve hours after hCG injection, ovulated COCs were obtained from the oviducts. After treatment with hyaluronidase (Specialty Media) for 1-2 min, oocytes were separated from cumulus cells and the proportion of oocytes showing first polar body extrusion was evaluated. To evaluate the role of BDNF in the conditioning of oocytes for early embryo development, immature mice were treated with PMSG, followed by hCG as described above. […] Fertilized oocytes were separated from cumulus cells, washed three times in M2 medium, and cultured for 5 days in modified M16 medium. Embryonic development was monitored daily, and the progression of fertilized eggs into preimplantation embryos was assessed.

[2] = system: Trk receptor; assay: In vivo treatment, progression of zygotes into blastocysts in vitro; parameters: species or system mouse; settings: 10 μg i.p. at 0, 4, 8 h after hCG; for decrease in number of cells in the blastocysts / suppression of development of zygotes into blastocyst stage embryos: fertilized oocytes cultured 5 days
Description: as §1

[3] = system: oocytes (cumulus oocyte complexes); assay: First polar body extrusion by oocytes in cultured COCs; format: cell-based, mouse; settings: for effect on the stimulatory effect of BDNF on first polar body extrusion: COCs, cotreatment with BDNF; for first polar body extrusion in cultured oocytes: COCs cultured 20 h without FBS, NGF and NT-3 at 10 ng/ml
Description: Evaluation of First Polar Body Extrusion. For evaluating the transition from metaphase I stage to metaphase II (MII) stage oocytes, COCs were obtained from mouse ovaries 48 h after PMSG treatment by puncturing the largest follicles in M2 medium (Specialty Media, Phillipsburg, N.J.). COCs were washed twice, transferred to modified M16 medium (Specialty Media) without FBS, and cultured with or without different doses of BDNF, mouse nerve growth factor (NGF; R & D Systems), or human neurotrophin-3 (NT-3) (R & D Systems) for 20 h at 37° C. in 5% CO2/95% air. Some COCs were also cultured with BDNF with or without the TrkB ectodomain (R & D Systems), pan-specific Trk receptor inhibitor K252a (Calbiochem), or K252b. The occurrence of first polar body extrusion in the oocyte was examined after removing cumulus cells by using a small-bore pipette under Hoffman contrast microscopy (Nikon).

[4] = system: MII oocytes; assay: Glutathione content in oocytes; format: cell-based, mouse; settings: COCs treated 16 h
Description: FIGS. 4A-E depict BDNF conditioning of oocytes for development into preimplantation embryos. FIG. 4A is a bar graph indicating the percentage of MII oocytes that developed to two-cell or blastocyst-stage embryos. Specifically, COCs obtained from preovulatory follicles were cultured without (control) or with BDNF (3 ng/ml) for 16 h. After progression to the MII stage, oocytes were inseminated and cultured for 5 days more without hormones. The percentage of MII oocytes that developed to two-cell or blastocyst-stage embryos were evaluated (n=5, 34-95 oocytes per experiment). FIG. 4B indicates the effects of BDNF treatment on glutathione (GSH) content in oocytes. After treatment of COCs for 16 h without (control, C) or with BDNF, glutathione levels in oocytes at MII oocytes were evaluated (mean±SEM, n=6). FIG. 4C depicts the effects of K252a treatment in vivo on the progression of zygotes into blastocysts in vitro. […] After initial injection, mice were allowed to mate with fertile males. Fertilized oocytes were cultured for 5 days, and the number of blastocyst embryos was evaluated. FIG. 4D depicts the effects of K252a treatment on the number of cells in the blastocysts. […]
Because the oocyte content of glutathione is important to sperm nuclear decondensation, the glutathione concentration in oocytes also was evaluated. […]

[5] = system: oocytes of preovulatory follicles; assay: Preovulatory follicle culture, GVBD of oocytes; format: cell-based, mouse; settings: cultured preovulatory follicles
Description: Follicle Cultures. Preovulatory follicles were excised from mouse ovaries 48 h after PMSG treatment and cultured to examine nuclear maturation of oocytes (Kawamura et al. (2004) Proc. Natl. Acad. Sci. USA 101, 7323-7328). […] The vials were flushed at the start of the culture with O2/N2 (at a 1:1 ratio), sealed, and cultured at 37° C. with gentle shaking for 6 h. After culture, cumulus oocyte complexes (COCs) were isolated, and, after cumulus cells were removed, oocytes were examined for the occurrence of GVBD.

[6] = system: oocytes (cumulus oocyte complexes); assay: In vitro maturation, fertilization and early embryonic development; format: cell-based, mouse
Description: In Vitro Maturation, Fertilization, and Early Embryonic Development. We performed in vitro maturation of oocytes followed by in vitro fertilization as previously described, with slight modifications. COCs from PMSG-primed mice were obtained in the M2 medium supplemented with 5% FBS before culturing in minimum essential media-α (Invitrogen) supplemented with Earle's salts, 10 μg/ml streptomycin sulfate, 75 μg/ml penicillin G, and 5% FBS in the presence or absence of 3 ng/ml BDNF at 37° C. in 5% CO2/95% air. After 16 h of treatment, cumulus cells were removed and the oocytes were examined and classified according to their developmental stage (germinal vesicle, metaphase I, or MII). MII-stage oocytes were inseminated with sperm from B6D2F1 males and incubated for 4 h at 37° C. in 5% CO2/95% air. After in vitro fertilization, fertilized oocytes were recovered, washed three times, and cultured in human tubal fluid medium (Specialty Media). The following morning, two-cell stage embryos were collected and cultured in 2 ml of modified M16 medium for 5 days more up to the blastocyst stage at 37° C. in 5% CO2/95% air. Embryonic development was monitored daily by Hoffman modulation contrast microscopy, and the progression of fertilized eggs to preimplantation embryos was assessed.

[7] = pretreatment 3 ng/ml BDNF 16 h, then in vitro fertilization without BDNF

| Molecule | inhibition of first polar body extrusion by ovulated oocytes [1] | number of ovulated oocytes per animal [1] | decrease in number of cells in the blastocysts [2] | suppression of development of zygotes into blastocyst stage embryos [2] | effect on the stimulatory effect of BDNF on first polar body extrusion [3] | first polar body extrusion in cultured oocytes [3] | also measured |
| --- | --- | --- | --- | --- | --- | --- | --- |
| COC(=O)[C@@]1(O)C[C@H]2O[C@]1(C)n1c3ccccc3c3c4c(c5c6ccccc6n2c5c31)C(=O)NC4 [K252a] | 30% | 37.8±5.3 | 51% | 72% | suppressed | – | number of fertilized oocytes vs control ([2]; oocytes collected 22 h after hCG): did not differ |
| CC12OC(CC1(O)C(=O)O)n1c3ccccc3c3c4c(c5c6ccccc6n2c5c31)C(=O)NC4 (stereo not shown) [K252b] | ineffective | 38.4±8.7 | not | ineffective | not | – | – |
| TrkB ectodomain: TrkB ectodomain (R & D Systems), antagonises BDNF stimulation | – | – | – | – | blocked | ineffective | – |
| B1 | – | – | – | – | – | not | – |
| B2 | – | – | – | – | – | not | – |
| B3 | – | – | – | – | – | increased | glutathione content in MII oocytes [4]: increased; cumulus cell expansion [5]: did not induce; induction of GVBD in oocytes ([5]; 6 h, 5 μg/ml LH or BDNF): not and lack of effect; increase in proportion of oocytes showing first polar body extrusion (MII-stage oocytes) ([6]; COCs, 3 ng/ml BDNF, 16 h, 5% FBS): more than 2 fold; increase in proportion of MII oocytes that developed into blastocyst-stage embryos [6, 7]: 5 fold; increase in proportion of MII oocytes that developed into two-cell embryos [6, 7]: 2 fold |
